# Legend:
# Serum [1] = test: Drug level in C57BL/6 mouse serum at 100 mg/kg, po; type: ADME, organism-based; design: dose 100 mg/kg, route oral; conditions: in vivo, read-out: Drug uptake
# Mus musculus [2] = test: Antiinflammatory activity in po dosed C57BL/6 mouse assessed as decrease in LPS-induced serum TNFalpha level administered 30 mins prior to LPS challenge measured 60 mins post LPS challenge by ELISA; type: functional, organism-based
# [3] = biological target: Protein kinase C alpha type (Homo sapiens) (UniProt P17252); test: Inhibition of human PKCalpha at 10 uM
# [4] = AUC (0 to 24 hrs) in mouse at 1 mg/kg, po; type: ADME, organism-based; design: time < 24 hr, dose 1 mg/kg, route oral; conditions: plasma
# [5] = Apparent permeability across apical to basolateral side in human Caco2 cells; type: ADME, cell-based; conditions: Caco-2
# [6] = biological target: Cyclin-dependent kinase 1/cyclin B1 (Homo sapiens) (UniProt P06493+P14635); test: Inhibition of human Cdk1/cyclin B at 10 uM; type: protein-complex assay
# [7] = biological target: Dual specificity mitogen-activated protein kinase kinase 1 (Homo sapiens) (UniProt Q02750); test: Inhibition of human MEK1 at 10 uM
# [8] = biological target: Mitogen-activated protein kinase 1 (Homo sapiens) (UniProt P28482); test: Inhibition of human ERK2 at 10 uM
# [9] = biological target: RAC-alpha serine/threonine-protein kinase (Homo sapiens) (UniProt P31749); test: Inhibition of human PKBalpha at 10 uM
# Rattus norvegicus [10] = species on record: Rattus norvegicus; test: Inhibition of rat AMPK at 10 uM
# [11] = biological target: Dual specificity mitogen-activated protein kinase kinase 6 (Homo sapiens) (UniProt P52564); test: Inhibition of human MKK6 at 10 uM
# [12] = biological target: Dual specificity mitogen-activated protein kinase kinase 4 (Mus musculus) (UniProt P47809); test: Inhibition of mouse MKK4 at 10 uM
# [13] = biological target: Inhibitor of nuclear factor kappa-B kinase subunit beta (Homo sapiens) (UniProt O14920); test: Inhibition of human IKKbeta at 10 uM
# [14] = biological target: Tyrosine-protein kinase Fes/Fps (Homo sapiens) (UniProt P07332); conditions: 10 uM
# Description: Inhibition of human FES at 10 uM
# [15] = biological target: Protein kinase C gamma type (Homo sapiens) (UniProt P05129); test: Inhibition of human PKCgamma at 10 uM
# Serum [16] = test: Drug level in C57BL/6 mouse serum at 60 mg/kg, po; type: ADME, organism-based; design: dose 60 mg/kg, route oral; conditions: in vivo, read-out: Drug uptake
# [17] = biological target: Mitogen-activated protein kinase 8 (Homo sapiens) (UniProt P45983); test: Inhibition of human JNK1alpha1 at 10 uM
# [18] = biological target: Tyrosine-protein kinase Yes (Homo sapiens) (UniProt P07947); conditions: 10 uM
# Description: Inhibition of human YES at 10 uM
# Serum [19] = test: Drug uptake in po dosed C57BL/6 mouse serum; type: ADME, organism-based; conditions: in vivo
# [20] = biological target: Ribosomal protein S6 kinase beta-1 (Homo sapiens) (UniProt P23443); test: Inhibition of human p70S6K at 10 uM
# [21] = biological target: MAP kinase-activated protein kinase 2 (Mus musculus, UniProt P49138); test: Inhibition of MAPKAP-K2 in mouse whole blood assessed as inhibition of LPS-induced TNFalpha production by ELISA
# [22] = biological target: MAP kinase-activated protein kinase 5 (Homo sapiens) (UniProt Q8IW41); test: Inhibition of human PRAK at 10 uM
# [23] = biological target: Mitogen-activated protein kinase 13 (Homo sapiens) (UniProt O15264); test: Inhibition of human p38delta at 10 uM
# Serum [24] = test: Drug level in C57BL/6 mouse serum at 10 mg/kg, po; type: ADME, organism-based; design: dose 10 mg/kg, route oral; conditions: in vivo, read-out: Drug uptake
# [25] = biological target: T1, Mitogen-activated protein kinase 14 (Homo sapiens, UniProt Q16539); test: Inhibition of human p38alpha at 10 uM
# [26] = biological target: Serine/threonine-protein kinase Chk1 (Homo sapiens) (UniProt O14757); test: Inhibition of human CHK1 at 10 uM
# [27] = Oral bioavailability in mouse at 1 mg/kg; type: ADME, organism-based; conditions: in vivo
# [28] = biological target: Receptor-type tyrosine-protein kinase FLT3 (Homo sapiens) (UniProt P36888); conditions: 10 uM
# Description: Inhibition of human FLT3 at 10 uM
# [29] = biological target: 3-phosphoinositide-dependent protein kinase 1 (Homo sapiens) (UniProt O15530); test: Inhibition of human PDK1 at 10 uM
# [30] = biological target: Mitogen-activated protein kinase 12 (Homo sapiens) (UniProt P53778); test: Inhibition of human p38gamma at 10 uM
# [31] = biological target: Dual specificity mitogen-activated protein kinase kinase 7 (Homo sapiens) (UniProt O14733); test: Inhibition of human MKK7beta at 10 uM
# THP-1 = test: Cytotoxicity against human THP1 cells assessed as cell viability by MTS assay; type: cell-based
# [32] = Total clearance in mouse at 1 mg/kg, iv; type: ADME, organism-based; design: dose 1 mg/kg, route intravenous; conditions: in vivo
# [33] = Plasma protein binding in mouse; type: ADME, cell-free; conditions: read-out: PPB (converted)
# [34] = biological target: T2, Rho-associated protein kinase 2 (Homo sapiens, UniProt O75116); test: Inhibition of human ROCK2 at 10 uM
# Rattus norvegicus [35] = species on record: Rattus norvegicus; test: Inhibition of rat CAMK2 at 10 uM
# Homo sapiens = species on record: Homo sapiens; test: Inhibition of human PKA at 10 uM
# [36] = biological target: Ribosomal protein S6 kinase alpha-3 (Homo sapiens) (UniProt P51812); test: Inhibition of human RSK2 at 10 uM
# Serum [37] = test: Drug level in C57BL/6 mouse serum at 30 mg/kg, po; type: ADME, organism-based; design: dose 30 mg/kg, route oral; conditions: in vivo, read-out: Drug uptake
# [38] = Intrinsic clearance in human liver microsomes; type: ADME, Microsome; conditions: read-out: CLH
# [39] = Intrinsic clearance in mouse liver microsomes; type: ADME, Microsome; conditions: read-out: CLH
# Mus musculus [40] = test: Antiinflammatory activity in C57BL/6 mouse assessed as LPS-induced serum TNFalpha level at 100 mg/kg, po administered 30 mins prior to LPS challenge measured 60 mins post LPS challenge by ELISA relative to vehicle-treated control; type: functional
# [41] = Solubility of the compound at pH 7.4; type: physicochemical; conditions: buffer
# [42] = Half life in mouse at 1 mg/kg, iv; type: ADME, organism-based; design: dose 1 mg/kg, route intravenous; conditions: in vivo
# [43] = biological target: MAP kinase-activated protein kinase 5 (Homo sapiens, UniProt Q8IW41); test: Inhibition of PRAK
# [44] = biological target: Mitogen-activated protein kinase 9 (Homo sapiens, UniProt P45984); test: Inhibition of JNK2
# [45] = Inhibition of PHK
# [46] = biological target: T3, MAP kinase-activated protein kinase 2 (Homo sapiens, UniProt P49137); test: Competitive inhibition of MAPKAP-K2 using KKLNRTLSVA as substrate and [33P]-gamma-ATP by Lineweaver-Burke plot analysis
# [47] = biological target: T3, MAP kinase-activated protein kinase 2; test: Inhibition of MAPKAP-K2 using KKLNRTLSVA as substrate and [33P]-gamma-ATP after 30 mins by liquid scintillation counter
# [48] = biological target: Glycogen synthase kinase-3 beta (Homo sapiens, UniProt P49841); test: Inhibition of GSK3beta
# [49] = biological target: T2, Rho-associated protein kinase 2; test: Inhibition of ROK2
# [50] = biological target: Cyclin-dependent kinase 2 (Homo sapiens, UniProt P24941)
# Description: Inhibition of CDK2 after 60 mins using [33P]-gamma-ATP by liquid scintillation counter
# [51] = biological target: Tyrosine-protein kinase Lck (Homo sapiens, UniProt P06239); test: Inhibition of LCK
# [52] = biological target: T1, Mitogen-activated protein kinase 14; test: Inhibition of P38alpha
# T3 sequence (P49137 whole entry): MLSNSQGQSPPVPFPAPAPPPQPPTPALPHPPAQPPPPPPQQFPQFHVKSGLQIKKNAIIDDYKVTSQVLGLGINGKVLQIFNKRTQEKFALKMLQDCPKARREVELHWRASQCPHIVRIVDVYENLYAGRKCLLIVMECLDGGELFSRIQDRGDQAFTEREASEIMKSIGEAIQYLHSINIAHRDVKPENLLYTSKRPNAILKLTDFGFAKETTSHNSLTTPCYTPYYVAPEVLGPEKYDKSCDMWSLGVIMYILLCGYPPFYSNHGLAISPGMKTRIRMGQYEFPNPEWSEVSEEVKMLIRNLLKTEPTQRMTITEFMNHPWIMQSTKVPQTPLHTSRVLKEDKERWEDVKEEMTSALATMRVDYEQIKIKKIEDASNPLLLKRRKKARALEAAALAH
# T1 sequence (Q16539 whole entry): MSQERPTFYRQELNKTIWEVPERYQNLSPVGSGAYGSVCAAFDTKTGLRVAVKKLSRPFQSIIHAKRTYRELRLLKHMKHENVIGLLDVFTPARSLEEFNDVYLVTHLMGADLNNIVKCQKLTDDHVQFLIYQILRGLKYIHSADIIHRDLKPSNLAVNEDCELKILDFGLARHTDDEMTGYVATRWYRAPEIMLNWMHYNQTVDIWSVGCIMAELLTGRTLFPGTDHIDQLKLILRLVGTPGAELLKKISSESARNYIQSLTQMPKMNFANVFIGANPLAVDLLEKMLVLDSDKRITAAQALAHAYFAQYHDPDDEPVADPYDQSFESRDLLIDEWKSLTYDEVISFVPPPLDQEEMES
# Chain of Mitogen-activated protein kinase 1 (Homo sapiens) (P28482 whole entry): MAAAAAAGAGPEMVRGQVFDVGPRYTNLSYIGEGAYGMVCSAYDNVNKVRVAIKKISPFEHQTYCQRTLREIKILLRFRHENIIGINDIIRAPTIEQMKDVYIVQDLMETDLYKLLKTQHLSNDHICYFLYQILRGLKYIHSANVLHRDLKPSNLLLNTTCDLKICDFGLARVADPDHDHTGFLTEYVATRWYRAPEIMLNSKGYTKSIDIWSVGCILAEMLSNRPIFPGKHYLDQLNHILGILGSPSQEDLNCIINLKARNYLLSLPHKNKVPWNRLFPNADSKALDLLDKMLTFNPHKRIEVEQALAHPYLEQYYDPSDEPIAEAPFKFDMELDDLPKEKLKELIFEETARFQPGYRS
# Chain of Mitogen-activated protein kinase 9 (P45984 whole entry): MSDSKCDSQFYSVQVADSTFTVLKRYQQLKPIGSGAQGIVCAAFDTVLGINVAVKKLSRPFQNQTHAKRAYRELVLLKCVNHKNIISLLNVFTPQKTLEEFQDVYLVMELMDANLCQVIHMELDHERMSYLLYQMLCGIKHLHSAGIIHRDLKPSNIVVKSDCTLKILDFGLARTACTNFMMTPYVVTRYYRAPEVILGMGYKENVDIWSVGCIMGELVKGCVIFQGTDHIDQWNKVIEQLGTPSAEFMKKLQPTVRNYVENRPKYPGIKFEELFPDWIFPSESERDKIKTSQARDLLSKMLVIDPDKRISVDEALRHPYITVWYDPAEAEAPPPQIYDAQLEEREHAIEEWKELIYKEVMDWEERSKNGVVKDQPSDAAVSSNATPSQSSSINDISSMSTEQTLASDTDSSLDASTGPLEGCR
# Chain of Inhibitor of nuclear factor kappa-B kinase subunit beta (Homo sapiens) (O14920 whole entry): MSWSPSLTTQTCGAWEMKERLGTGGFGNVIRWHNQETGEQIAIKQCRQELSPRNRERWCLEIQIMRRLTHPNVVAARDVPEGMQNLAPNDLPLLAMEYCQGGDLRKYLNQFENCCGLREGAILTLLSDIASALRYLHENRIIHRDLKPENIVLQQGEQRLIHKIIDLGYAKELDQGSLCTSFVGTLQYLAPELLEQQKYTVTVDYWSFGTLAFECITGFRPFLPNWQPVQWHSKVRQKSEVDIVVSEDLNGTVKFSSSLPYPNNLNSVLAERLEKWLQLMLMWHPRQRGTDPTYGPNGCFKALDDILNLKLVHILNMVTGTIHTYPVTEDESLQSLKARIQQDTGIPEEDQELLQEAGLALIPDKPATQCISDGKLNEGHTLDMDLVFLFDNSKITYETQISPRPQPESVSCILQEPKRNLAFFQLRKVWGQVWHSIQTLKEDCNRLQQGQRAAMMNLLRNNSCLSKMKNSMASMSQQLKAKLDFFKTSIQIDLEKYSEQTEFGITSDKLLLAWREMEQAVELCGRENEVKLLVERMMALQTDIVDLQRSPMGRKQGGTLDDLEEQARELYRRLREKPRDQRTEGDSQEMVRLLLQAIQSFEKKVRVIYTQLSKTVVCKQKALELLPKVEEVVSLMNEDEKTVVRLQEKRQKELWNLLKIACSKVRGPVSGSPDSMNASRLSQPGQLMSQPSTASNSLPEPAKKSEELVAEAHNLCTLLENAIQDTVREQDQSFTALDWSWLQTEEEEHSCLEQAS
# Chain of Ribosomal protein S6 kinase beta-1 (Homo sapiens) (P23443 whole entry, looked up): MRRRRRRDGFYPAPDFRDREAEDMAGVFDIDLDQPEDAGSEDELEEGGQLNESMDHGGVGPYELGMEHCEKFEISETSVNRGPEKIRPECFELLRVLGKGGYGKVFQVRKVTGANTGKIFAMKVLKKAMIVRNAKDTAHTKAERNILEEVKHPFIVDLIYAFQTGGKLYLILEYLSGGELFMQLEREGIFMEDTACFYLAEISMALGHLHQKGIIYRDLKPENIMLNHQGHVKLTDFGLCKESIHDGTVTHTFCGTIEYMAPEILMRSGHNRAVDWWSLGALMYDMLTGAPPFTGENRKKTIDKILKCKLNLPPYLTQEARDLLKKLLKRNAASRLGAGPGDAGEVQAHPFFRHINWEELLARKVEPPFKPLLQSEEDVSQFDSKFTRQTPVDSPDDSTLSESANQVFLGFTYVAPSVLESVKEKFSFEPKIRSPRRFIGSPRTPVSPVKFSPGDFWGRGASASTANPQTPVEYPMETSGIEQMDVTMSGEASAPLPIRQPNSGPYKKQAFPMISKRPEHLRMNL
# Chain of Cyclin-dependent kinase 1/cyclin B1 (Homo sapiens) (P06493 whole entry, looked up): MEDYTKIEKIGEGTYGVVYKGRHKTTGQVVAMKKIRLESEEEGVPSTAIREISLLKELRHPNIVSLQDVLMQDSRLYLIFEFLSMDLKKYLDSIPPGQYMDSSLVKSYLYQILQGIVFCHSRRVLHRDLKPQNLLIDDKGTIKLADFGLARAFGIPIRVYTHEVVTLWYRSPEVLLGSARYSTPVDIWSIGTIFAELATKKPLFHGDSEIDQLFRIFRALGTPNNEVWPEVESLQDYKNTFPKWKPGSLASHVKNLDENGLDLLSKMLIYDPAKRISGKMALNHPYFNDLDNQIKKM
# Chain of Cyclin-dependent kinase 1/cyclin B1 (Homo sapiens) (P14635 whole entry, looked up): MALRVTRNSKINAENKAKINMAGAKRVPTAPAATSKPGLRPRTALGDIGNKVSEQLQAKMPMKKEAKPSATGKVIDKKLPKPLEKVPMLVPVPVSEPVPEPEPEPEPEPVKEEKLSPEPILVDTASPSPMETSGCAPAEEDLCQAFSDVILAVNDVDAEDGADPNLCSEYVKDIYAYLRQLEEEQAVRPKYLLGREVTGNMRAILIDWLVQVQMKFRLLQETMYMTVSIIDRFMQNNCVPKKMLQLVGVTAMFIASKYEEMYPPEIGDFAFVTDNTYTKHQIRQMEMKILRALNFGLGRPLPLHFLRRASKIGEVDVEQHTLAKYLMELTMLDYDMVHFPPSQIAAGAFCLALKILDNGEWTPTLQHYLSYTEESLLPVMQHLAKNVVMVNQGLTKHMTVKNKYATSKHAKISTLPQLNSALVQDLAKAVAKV
# Chain of Mitogen-activated protein kinase 8 (Homo sapiens) (P45983 whole entry): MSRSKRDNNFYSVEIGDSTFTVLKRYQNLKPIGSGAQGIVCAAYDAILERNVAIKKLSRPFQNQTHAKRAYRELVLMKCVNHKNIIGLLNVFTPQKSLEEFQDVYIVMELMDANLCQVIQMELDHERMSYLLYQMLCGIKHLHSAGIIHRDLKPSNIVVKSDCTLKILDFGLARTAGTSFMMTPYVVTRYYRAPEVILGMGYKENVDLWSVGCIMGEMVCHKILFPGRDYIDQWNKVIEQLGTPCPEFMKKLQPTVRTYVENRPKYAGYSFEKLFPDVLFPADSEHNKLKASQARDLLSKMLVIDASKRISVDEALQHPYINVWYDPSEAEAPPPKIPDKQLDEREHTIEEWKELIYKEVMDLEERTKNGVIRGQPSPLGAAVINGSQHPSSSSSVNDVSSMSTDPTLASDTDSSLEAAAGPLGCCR
# Chain of Tyrosine-protein kinase Yes (Homo sapiens) (P07947 2-543 limits assumed): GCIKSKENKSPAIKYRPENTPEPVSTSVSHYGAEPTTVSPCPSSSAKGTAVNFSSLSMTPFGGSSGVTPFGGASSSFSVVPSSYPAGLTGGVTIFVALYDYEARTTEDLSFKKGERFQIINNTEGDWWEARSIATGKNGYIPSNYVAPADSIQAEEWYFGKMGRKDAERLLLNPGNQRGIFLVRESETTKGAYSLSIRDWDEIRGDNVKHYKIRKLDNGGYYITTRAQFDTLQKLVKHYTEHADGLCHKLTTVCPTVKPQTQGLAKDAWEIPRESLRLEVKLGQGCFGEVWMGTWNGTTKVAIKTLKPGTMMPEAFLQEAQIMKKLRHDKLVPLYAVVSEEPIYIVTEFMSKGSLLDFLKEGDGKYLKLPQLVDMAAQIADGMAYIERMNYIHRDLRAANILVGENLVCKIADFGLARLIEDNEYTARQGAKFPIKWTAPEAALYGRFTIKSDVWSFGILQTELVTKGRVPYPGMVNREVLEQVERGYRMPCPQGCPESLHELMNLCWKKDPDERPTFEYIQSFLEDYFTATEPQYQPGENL
# Chain of Dual specificity mitogen-activated protein kinase kinase 1 (Homo sapiens) (Q02750 whole entry): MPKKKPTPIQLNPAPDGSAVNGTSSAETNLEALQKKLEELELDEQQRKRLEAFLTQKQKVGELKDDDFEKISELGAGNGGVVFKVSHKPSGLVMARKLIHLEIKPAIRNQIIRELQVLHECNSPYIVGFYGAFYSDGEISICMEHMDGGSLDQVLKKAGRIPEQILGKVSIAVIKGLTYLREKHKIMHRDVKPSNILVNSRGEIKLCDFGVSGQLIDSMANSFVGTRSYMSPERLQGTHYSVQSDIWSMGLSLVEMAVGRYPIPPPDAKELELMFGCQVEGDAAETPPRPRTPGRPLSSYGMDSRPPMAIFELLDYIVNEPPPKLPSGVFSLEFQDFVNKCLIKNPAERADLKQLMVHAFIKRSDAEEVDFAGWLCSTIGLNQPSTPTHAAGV
smiles,measurement,setting,value
CCOc1ccc(Nc2c(C)c(N[C@H]3CCCNC3)nc3ccnn23)cc1,concentration,Serum [1],10 µM
same,Activity,Mus musculus [2],Dose-dependent effect
same,inhibition,[3],5%
same,AUC(0-t) at 24 h,[4],0.438 µM·h
same,Papp A→B,[5],28.3 ×10⁻⁶ cm/s
same,inhibition,[6],12%
same,inhibition,[7],19%
same,inhibition,[8],7%
same,inhibition,[9],3%
same,inhibition,Rattus norvegicus [10],35%
same,inhibition,[11],24%
same,inhibition,[12],15%
same,inhibition,[13],7%
same,inhibition,[14],> 75%
same,inhibition,[15],-5%
same,concentration,Serum [16],8 µM
same,inhibition,[17],0%
same,inhibition,[18],> 75%
same,Drug uptake,Serum [19],Dose-dependent effect
same,inhibition,[20],-1%
same,IC50,[21],5 µM
same,inhibition,[22],62%
same,inhibition,[23],3%
same,concentration,Serum [24],2 µM
same,inhibition,[25],4%
same,inhibition,[26],30%
same,bioavailability,[27],66%
same,inhibition,[28],> 75%
same,inhibition,[29],-9%
same,inhibition,[30],-2%
same,inhibition,[31],26%
same,IC50,THP-1,74 µM
same,clearance,[32],68.3 mL/min/kg
same,fraction unbound,[33],0.114
same,inhibition,[34],23%
same,inhibition,Rattus norvegicus [35],41%
same,inhibition,Homo sapiens,0%
same,inhibition,[36],9%
same,concentration,Serum [37],5 µM
same,microsomal CLint,[38],< 10 µL/min/mg
same,microsomal CLint,[39],11 µL/min/mg
same,Activity,Mus musculus [40],14%
same,solubility,[41],70 µg/mL
same,half-life,[42],2.2 h
N[C@H]1CC[C@H](Nc2cc(Nc3ccc(F)c(Cl)c3)n3nccc3n2)CC1,IC50,[43],11 µM
same,IC50,[44],25 µM
same,Papp A→B,[5],7.1 ×10⁻⁶ cm/s
same,IC50,[45],3 µM
same,Ki,[46],6 µM
same,IC50,[47],1.3 µM
same,IC50,[48],23 µM
same,IC50,[49],14 µM
same,IC50,[50],0.055 µM
same,microsomal CLint,[38],< 10 µL/min/mg
same,microsomal CLint,[39],59 µL/min/mg
same,solubility,[41],75 µg/mL
same,IC50,[51],300 µM
same,IC50,[52],> 100 µM
